In patent publication US20130281313A1, “PROGNOSTIC AND/OR PREDICTIVE BIOMARKERS AND BIOLOGICAL APPLICATIONS THEREOF” (INSTITUT GUSTAVE ROUSSY, priority 2010, published 2013):

What was measured:
A549 cells [1] = assay: Targeted metabolomic studies (ATP, ADP, AMP, GSH; RRLC-MS); format: cell-based, human; conditions: A549 cells, 24 h
Procedure: A549 cells were left untreated or treated with 25 μM CDDP alone or in combination with 5 mM PN, for 24 h. Thereafter, both attached (living) and detached (dying/dead) cells were harvested, washed once in cold PBS and pelleted (800 G for 5 min). Pellets were resuspended in 200 μL deionized water, briefly vortexed and sonicated. 800 μl ice-cold methanol was added, and samples were kept in ice for 15 min, vortexed and centrifuged at 13,000 G for 10 min at 4° C. Supernatants were dried in a SpeedVac drier (Thermo Scientific-Pierce) and stored at −80° C. until analysis. Pellets were resuspended in 150 μL 98:2 water/acetonitrile immediately before analytical determinations (see below).
ATP, ADP, AMP and GSH were quantified on a Rapid Resolution Liquid Chromatography (RRLC) 1200SL system coupled to a 6410 Triple Quadripole (QQQ) mass spectrometer (both from Agilent Technologies). For nucleotides, RRLC was performed on 150×2.1 mm, 3.5 μM Eclipse Plus columns (Agilent Technologies) with water containing 4 mM dimethylhexylamine (DMHA) plus 0.01% (v/v) acetic acid in channel A and acetonitrile in channel B, in gradient mode at a flow rate of 0.2 mL/min: t=0 min 2% B; t=9 min 32% B; t=10 min 95% B; T=12 min 95% B, re-equilibration time=6 min. Mass spectrometry was performed in positive electrospray ionization mode at +4 kV on the QQQ system operating in MRM mode. MRM transitions were optimized with direct infusions of ATP, ADP, and AMP standards with direct infusion, and four transitions were recorded for each compounds. Parent ions were adduct ions of DMHA and also proton adducts:
For GSH, RRLC was performed on a 150×2.1 mm, 3.5 μM Stable Bond AQ column (Agilent Technologies) with water containing 0.2% (v/v) acetic acid in channel A and methanol in channel B, in gradient mode at a flow rate of 0.3 mL/min: t=0 min 2% B; t=8 min 95% B; t=9 min 95% B; re-equilibration time=6 min. Mass spectrometry was performed as above. MRM transitions were optimized with direct infusion of GSH standards.
Data collection and analysis were performed with the MassHunter software (Agilent Technologies).

A549 cells [2] = assay: Intracellular levels of CDDP in cell lysates; format: cell-based, human; conditions: 24 h, 25 μM CDDP alone or with PN and/or GSH, normalized to protein content
Procedure: (E,F) Intracellular levels of CDDP (normalized to protein content) in lysates from untransfected A549 cells (D) or A549 cells transfected with a PDXK-targeting siRNA (E), treated for 24 h with 25 μM CDDP alone or in combination with PN and/or GSH. Mean±SEM (n=6). *=p<0.05 (Studen's t test), as compared to untransfected (D) or siUNR transfected (E) cells treated with CDDP only. n.s.=non significant (Student's t test), as compared to cells treated with the same concentration of GSH (D) or to siPDXK-transfected cells treated with CDDP only (E).

[3] = test system: murine Lewis lung carcinoma (LLC) cells in immunocompetent C57BL/6 mice; assay: Tumor graft model: LLC cells in C57BL/6 mice; format: in vivo, mouse; conditions: intraperitoneal CDDP with systemic injections of PN
Procedure: C57BL/6 (H-2b) and Swiss Nude mice were obtained from Janvier (Le Genest St. Isle, France) and Charles River, respectively. Animals were maintained in pathogen-free conditions, and all experiments were carried out (upon approval by the local ethical committee) according to the Federation of European Laboratory Animal Science Association (FELASA) guidelines. Mice were used between 6 and 12 weeks of age. During the experiments, animals were subjected to artificial light cycle (12 h lights on-12 h lights off) and allowed food and drink ad libitum.
5×10^5 LLC and A549 cells were subcutaneously xenografted (in 100 μL sterile PBS) in 25-30 immunocompetent (C57BL/6) and immunodeficient (Swiss Nude) mice, respectively. When the surface of tumors reached 25-40 mm^2, n=4-6 mice were assigned to either of 4 different treatment groups: group 1=100 μL intraperitoneal PBS; group 2=5 mg/kg intraperitoneal CDDP in 100 μL PBS; group 3=240 mg/Kg intraperitoneal Orlistat® in 40 μL PBS; group 4=5 mg/kg intraperitoneal CDDP in 100 μL PBS+intraperitoneal Orlistat® in 40 μL PBS. Treatments were administered three times a week (day 1, 3 and 5; day 8=day 1). Tumor size was monitored on the day of treatment by means of a standard calliper and tumor volume was extrapolated as previously described {Streit, 1999}. […] Statistical significance was evaluated by two-way ANOVA.

Structure (SMILES)	intracellular levels of GSH (A549 cells [1]; 25 μM CDDP)	Atkinson's energy charge (A549 cells [1]; 25 μM CDDP and 5 mM PN in combination, not present with either compound alone)	CDDP-induced decrease in GSH and redox-relevant metabolites (carnitine, acetylcarnitine, propionylcarnitine) (A549 cells [1]; 25 μM CDDP with 5 mM PN)	intracellular accumulation of CDDP (A549 cells [2])	antitumor effects of CDDP-based chemotherapy (tumor growth) [3]
N.N.[Cl][Pt][Cl] [CDDP, cis-diammineplatinum(II) dichloride]	a decrease in the intracellular levels of GSH				
Cc1ncc(CO)c(CO)c1O [PN, pyridoxine]		exhibited a bioenergetic defect	largely exacerbated by PN	significantly augmented by PN in a PDXK-dependent fashion	augmented the antitumor effects of CDDP-based chemotherapy in vivo
